Measurements taken from US5334594A, “Amphoteric tricyclic compound” (Hokoriku Pharmaceutical Co., Ltd., priority 1992, dated 1994).
Structures can show the parent of a compound that is named as a salt. Where two headings read alike, the source gives them in different places.

Key:
[1] = target: muscarinic acetylcholine receptor; assay: Inhibition of [^3 H]-QNB binding to rat cerebral cortex membrane (muscarinic acetylcholine receptor binding assay); settings: -log Ki by Cheng and Prusoff
[2] = system: compound 48/80-induced lethality (antihistaminic (H1) activity); assay: Inhibitory effect on compound 48/80-induced lethality in rats (antihistaminic activity); format: in vivo, rat (male Wistar); settings: Rattus norvegicus, po, 2 h; 1 mg/kg orally one hour before compound 48/80 (1 mg/kg i.v.); survival after two hours; read-out: Survival rate
Method: 1. Inhibitory Effects on Compound 48/80-Induced Lethality in Rats (Antihistaminic Activity)
The evaluation of antihistaminic activity was carried out according to the method of Niemegeers et al. (Arch. Int. Pharmacodyn. Ther., 234, 164 (1978)).
Male Wistar rats, 6 weeks of age, were used in the experiments. Compound 48/80 (formaldehyde condensation product of p-methoxy-N-methylphenethylamine) was administered intravenously to rats at a lethal dose of 1 mg/kg. Survival rates were determined according to an all or non criteria by using the numbers of rats that survived after two hours. Test compounds (1 mg/kg) were administered orally to rats one hour before the administration of compound 48/80.

[3] = system: histamine-induced bronchoconstriction; assay: Inhibitory effects on histamine-induced bronchoconstriction in anesthetized guinea-pigs (antiasthmatic activity); format: in vivo, guinea-pig (male Hartley); settings: for ED50: Cavia porcellus, 2 h, read-out: Antiasthmatic activity (B) ED50
Method: 3. Inhibitory Effects on Histamine-Induced Bronchoconstriction in Anesthetized Guinea-Pigs (Antiasthmatic Activity)
The induction and evaluation of antiasthmatic activity were carried out according to the method of Makino et al. (J. Pharm. Pharmacol., 42, 236 (1990)).
Male Hartley guinea-pigs, 6 weeks of age, were anesthetized with urethane ( 1.5 g/kg, i.p. ). The carotid artery and jugular vein were cannulated to measure arterial blood pressure and to facilitate intravenous histamine administration. The trachea was cannulated and the animals were ventilated using a respiratory pump (60 strokes/min; 4 ml/stroke). Changes in insufflation pressure induced by the administration of histamine (20 μg/kg, i.v.) at a constant airflow were constantly monitored as percentage values based on the maximum pressure (100%) (Bronchospasm tramsducer 7020, Ugo Basile). Test compounds were administered orally to animals two hours before the administration of histamine. The ED50 values (doses which induce 50% inhibition of histamine-induced broncho-constriction compared to inhibition observed in control) were calculated using dose-inhibition curves.

[4] = system: 48 h homologous passive cutaneous anaphylaxis (PCA); assay: Inhibitory effects on 48 h homologous passive cutaneous anaphylaxis (PCA) in rats (antiallergic activity); format: in vivo, rat (male Wistar); settings: 1 mg/kg orally one hour before antigen challenge
Method: 2. Inhibitory Effects on 48 h Homologous Passive Cutaneous Anaphylaxis (PCA) in Rats (Antiallergic Activity)
The induction and evaluation of antiallergic activity were carried out according to the method of Makino et al. (Japan J. Pharmacology, 52, 87 (1990)).
Male Wistar rats, 6 weeks of age, were passively sensitized by intracutaneous injection on the back at a volume of 0.1 ml of 20- or 40-fold diluted anti-DNP-As rat serum. After 48 hours, the animals were challenged by an intravenous injection of 0.5 ml saline solution containing 1 mg of DNP-As and 5 mg of Evans blue. The animals were sacrificed 30 minutes after the challenge and then the extravasated dye was extracted with 1N KOH and acetone. After neutralization with 1N H3 PO4, the amount of dye was determined by measuring the absorbance of the extract at 620 nm. Test compounds (1 mg/kg) were orally administered to rats one hour before the antigen challenge. The inhibitory activity of test compounds were obtained as percent inhibition of PCA by comparing the results obtained from control rats.

[5] = target: T1, histamine (H1) receptor (Cavia porcellus, UniProt P31389); assay: Inhibitory effects on ex vivo [^3 H]-mepyramine binding to guinea-pig cerebral cortex (degree of penetration into brain); format: in vivo, guinea-pig (male Hartley); settings: for ED50: 2 h, oral, two hours, ex vivo [^3 H]-mepyramine binding, guinea-pig cerebral cortex, read-out: Degree of penetration activity (A) ID50; for Selectivity (C/B): ratio of ID50 (brain penetration, C) to ED50 (antiasthmatic activity, B)
T1 construct: Separated cerebral cortices were homogenized in 50-folds volume of 50 mM Na/K-phosphate buffer (pH 7.4); from tissue; host or cells: guinea-pig cerebral cortex, crude membrane fraction (homogenate)
T1 sequence (P31389 whole entry): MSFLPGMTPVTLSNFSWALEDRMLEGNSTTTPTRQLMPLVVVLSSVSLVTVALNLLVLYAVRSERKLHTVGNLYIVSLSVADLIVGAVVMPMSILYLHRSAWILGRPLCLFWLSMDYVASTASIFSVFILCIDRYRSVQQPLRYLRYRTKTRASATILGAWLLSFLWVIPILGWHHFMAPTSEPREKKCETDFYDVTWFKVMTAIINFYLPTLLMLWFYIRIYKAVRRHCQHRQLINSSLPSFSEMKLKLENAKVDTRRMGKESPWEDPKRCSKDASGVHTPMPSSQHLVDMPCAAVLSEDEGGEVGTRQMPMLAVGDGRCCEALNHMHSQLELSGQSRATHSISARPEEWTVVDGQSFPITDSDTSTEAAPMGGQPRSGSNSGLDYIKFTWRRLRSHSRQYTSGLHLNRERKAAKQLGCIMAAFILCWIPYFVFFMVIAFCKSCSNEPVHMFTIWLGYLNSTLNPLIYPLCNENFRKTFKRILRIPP
Method: 4. Inhibitory Effects on Ex Vivo [^3 H]-Mepyramine Binding to Guinea-Pig Cerebral Cortex (Degree of Penetration into Brain)
The evaluation of histamine (H1) receptor affinity on guinea-pig cerebral cortex was carried out according to the method of Ahn et al. (Eur. J. Pharmacol., 127, 153 (1986)).
Male Hartley guinea-pigs, 6 weeks of age, were administered orally with test compounds or vehicles. After two hours, animals were killed by exsanguination and brains were rapidly isolated. Separated cerebral cortices were homogenized in 50-folds volume of 50 mM Na/K-phosphate buffer (pH 7.4). These homogenates were used as crude membrane fractions for receptor binding assay. [^3 H]-mepyramine was used as a radio-active ligand. […] The ID50 values (doses which induce 50% inhibition of specific binding of vehicle treated group) were calculated using dose-inhibition curves.

[6] = oral, two hours before histamine (20 μg/kg, i.v.), anesthetized guinea-pigs

Row | Compound | pKi [1] | responders at 1 mg/kg [2] [%] | Antiallergic activity (A) inhibition (%) [4] [%] | other results
1 | CC(=O)N1CCC(=C2c3ccc(Cl)cc3OCc3cccnc32)CC1 [Reference compound C] | 5.72 | 20 | -11 | Antiasthmatic activity (B) ED50 [3, 6]: No effect (1 mg/kg)
2 | O=C(O)CCCCN1CCC(=C2c3ccc(Cl)cc3OCc3cccnc32)CC1 [Example 20-(2), 5-[4-(8-Chloro-5,11-dihydrobenz[b]oxepino[4,3-b]pyridin-11-ylidene)piperidino]valeric Acid. Hydrochloride] |  | 100 |  | 
3 | O=C(O)CCCN1CCC(=C2c3ccc(Cl)cc3OCc3cccnc32)CC1 [Example 18-(2), 4-[4-(8-Chloro-5,11-dihydrobenz[b]oxepino[4,3-b]pyridin-11-ylidene)piperidino]butyric Acid. Hydrochloride] |  | 80 |  | 
4 | O=C(O)CCN1CCC(=C2c3ccc(F)cc3Oc3cccnc32)CC1 [Example 9-(2), 3-[4-(7-Fluoro-10H-benzo[b]pyrano[3,2-b]pyridin-10-ylidene)piperidino]propionic Acid] |  | 100 |  | 
5 | CCOC(=O)N1CCC(=C2c3ccc(Cl)cc3CCc3cccnc32)CC1 [Reference compound B, Loratadine] | 6.04 | 60 | 38 | ED50 ([3]; po): 0.13 mg/kg
6 | CCOC(=O)CN1CCC(=C2c3ccc(Cl)cc3CCc3cccnc32)CC1 [Reference compound D, reference compound] | 5.84 | 40 | 41 | ED50 [5]: 11 mg/kg; Selectivity (C/B) [5]: 38; ED50 [3, 6]: 0.29 mg/kg
7 | O=C(O)CCN1CCC(=C2c3ccccc3Oc3cccnc32)CC1 [Example 8-(2), 3-[4-(10H-benzo[b]pyrano[3,2-b]pyridin-10-ylidene)piperidino]propionic Acid] |  | 100 |  | 
8 | O=C(O)CCCN1CCC(=C2c3ccc(F)cc3Oc3cccnc32)CC1 [Example 23-(2), 4-[4-(7-Fluoro-10H-benzo[b]pyrano[3,2-b]pyridin-10-ylidene)piperidino]butyric Acid] |  | 100 |  | 
9 | CC(CN1CCC(=C2c3ccc(F)cc3OCc3cccnc32)CC1)C(=O)O (stereo not shown) [Example 14-(2), 3-[4-(8-Fluoro-5,11-dihydrobenz[b]oxepino[4,3-b]pyridin-11-ylidene)piperidino]-2-methylpropionic Acid] |  | 100 |  | 
10 | O=C(O)CCCCCN1CCC(=C2c3ccc(F)cc3OCc3cccnc32)CC1 [Example 12-(2), 6-[4-(8-Fluoro-5,11-dihydrobenz[b]oxepino[4,3-b]pyridin-11-ylidene)piperidino]hexanoic Acid . Hydrochloride] |  | 100 |  | 
11 | O=C(O)CCN1CCC(=C2c3cc(Cl)ccc3OCc3cccnc32)CC1 [Example 6-(2), 3-[4-(9-Chloro-5,11-dihydrobenz[b]oxepino[4,3-b]pyridin-11-ylidene)piperidino]propionic Acid] |  | 100 |  | 
12 | O=C(O)CCCN1CCC(=C2c3ccc(F)cc3OCc3cccnc32)CC1 [Example 10-(2), 4-[4-(8-Fluoro-5,11-dihydrobenz[b]oxepino[4,3-b]pyridin-11-ylidene)piperidino]butyric Acid] |  | 100 |  | 
13 | O=C(O)CCN1CCC(=C2c3ccc(Cl)cc3OCc3cccnc32)CC1 [Example 5-(2), 3-[4-(8-Chloro-5,11-dihydrobenz[b]oxepino[4,3-b]pyridin-11-ylidene)piperidino]propionic Acid. Hydrochloride] | < 5 | 100 | 79 | ED50 [5]: 53 mg/kg; Selectivity (C/B) [5]: 2304; ED50 [3, 6]: 0.023 mg/kg
14 | O=C(O)CCCCCN1CCC(=C2c3ccc(Cl)cc3OCc3cccnc32)CC1 [Example 21-(2), 6-[4-(8-Chloro-5,11-dihydrobenz[b]oxepino[4,3-b]pyridin-11-ylidene)piperidino]hexanoic Acid . Hydrochloride] |  | 100 |  | 
15 | O=C(O)CCN1CCC(=C2c3ccc(F)cc3OCc3cccnc32)CC1 [Example 2-(2), 3-[4-(8-Fluoro-5,11-dihydrobenz[b]oxepino[4,3-b]pyridin-11-ylidene)piperidino]propionic Acid] | < 5 | 100 | 78 | ED50 [5]: 32 mg/kg; Selectivity (C/B) [5]: 696; ED50 [3, 6]: 0.046 mg/kg
16 | O=C(O)CCN1CCC(=C2c3ccccc3OCc3cccnc32)CC1 [Example 1-(2), 3-[4-(5,11-Dihydrobenz[b]oxepino[4,3-b]pyridin-11-ylidene)piperidino]propionic Acid.Hydrochloride] |  | 80 | 80 | ED50 [5]: 36 mg/kg; Selectivity (C/B) [5]: 439; ED50 [3, 6]: 0.082 mg/kg
17 | O=C(O)CCN1CCC(=C2c3cccc(Cl)c3OCc3cccnc32)CC1 [Example 4-(2), 3-[4-(7-Chloro-5,11-dihydrobenz[b]oxepino[4,3-b]pyridin-11-ylidene)piperidino]propionic Acid. Hydrochloride] |  | 100 |  | 
18 | CN1CCC(=C2c3ccccc3CCc3cccnc32)CC1 [Reference compound A, Azatadine, reference compound] | 8.47 | 60 | 77 | ED50 [5]: 0.028 mg/kg; Selectivity (C/B) [5]: 28; ED50 [3, 6]: 0.001 mg/kg
19 | O=C(O)CCCCN1CCC(=C2c3ccc(F)cc3OCc3cccnc32)CC1 [Example 11-(2), 5-[4-(8-Fluoro-5,11-dihydrobenz[b]oxepino[4,3-b]pyridin-11-ylidene)piperidino]valetic Acid] |  | 100 |  | 
